Assay results: publication PMC4488747, “Inhibition of P-glycoprotein Gene Expression and Function Enhances Triptolide-induced Hepatotoxicity in Mice” (Scientific Reports, 2015)

Legend:
[1] = set-up: method as in PMID 24632843; conditions: bile duct-cannulated (BDC) rats, in 24 h; cited from earlier work
[2] = tested on: BALB/C mice; experiment: Death rate of mice after TP treatment; assay type: in vivo; conditions: TP 1 mg/kg iv, pretreatment with mdr1a-siRNA
Experimental: For TP plasma kinetic study and toxicological evaluation, mice were divided into four groups (n = 5 each) to collect blood and tissue samples: (1) normal + saline group; (2) 1.0 mg/kg TP + 15 nmol NC-siRNA group; (3) 1.0 mg/kg TP + 15 nmol mdr1a-siRNA group; (4) 1.0 mg/kg TP + 10 mg/kg tariquidar group. In order to avoid the complication caused by drug absorption or possible intestinal first-pass effect, TP and the inhibitor were intravenously administrated to mice. The siRNA group was intravenously injected with NC-siRNA or mdr1a-siRNA 2 days before TP dose. For TP + tariquidar group, the mice were received an intravenous tariquidar dose 20 min prior to the TP injection. Blood samples were collected at 2, 5, 10, 15, 30, 60 and 120 min after TP dosing. To assess the liver exposure of TP, liver tissue samples were collected from another set of mice at 5, 30, 60 and 120 min after dosing. Three TP groups were design for this experiment, including TP + NC-siRNA group, TP + mdr1a-siRNA group and TP + tariquidar group. The liver tissue samples were weighed and then homogenized in 10 volume (w:v) of ice-cold saline. The concentrations of TP in plasma and liver tissue were measured by a validated LC-MS/MS method. […]

[3] = tested on: CYP reductase KO mice; set-up: method as in PMID 21596114; conditions: cited from earlier work
[4] = tested on: BALB/C mice; experiment: Serum ALT and AST (TP-induced hepatotoxicity) in mice; assay type: in vivo; conditions: TP 1 mg/kg iv + NC-siRNA, 24 h after TP
Experimental: (§1) For TP plasma kinetic study and toxicological evaluation, mice were divided into four groups (n = 5 each) to collect blood and tissue samples: (1) normal + saline group; (2) 1.0 mg/kg TP + 15 nmol NC-siRNA group; (3) 1.0 mg/kg TP + 15 nmol mdr1a-siRNA group; (4) 1.0 mg/kg TP + 10 mg/kg tariquidar group. In order to avoid the complication caused by drug absorption or possible intestinal first-pass effect, TP and the inhibitor were intravenously administrated to mice. The siRNA group was intravenously injected with NC-siRNA or mdr1a-siRNA 2 days before TP dose. For TP + tariquidar group, the mice were received an intravenous tariquidar dose 20 min prior to the TP injection. Blood samples were collected at 2, 5, 10, 15, 30, 60 and 120 min after TP dosing. To assess the liver exposure of TP, liver tissue samples were collected from another set of mice at 5, 30, 60 and 120 min after dosing. Three TP groups were design for this experiment, including TP + NC-siRNA group, TP + mdr1a-siRNA group and TP + tariquidar group. The liver tissue samples were weighed and then homogenized in 10 volume (w:v) of ice-cold saline. The concentrations of TP in plasma and liver tissue were measured by a validated LC-MS/MS method. Prior to the above animal study, a preliminary experiment was performed to assess the possible differences in liver P-gp protein expression (Figure S1) and TP plasma kinetics between NC-siRNA treated mice and normal mice (with saline) (Figure S2 and supplemental Table 1). […] Therefore, NC-siRNA group was used as the control in the following animal study.
At 24 h of TP treatment, blood and liver tissue samples were collected from the mice in plasma kinetic study. Serum ALT and AST levels were determined with a CL8000 automated biochemical analyzer (Shimadzu, Japan) after serum was separated by centrifugation at 900 g for 10 min. Liver tissue samples were divided into two parts, the first half was kept at −80 °C until MDA and SOD measurements using MDA and SOD assay kits (Nanjing Jiancheng Bioengineering Institute, Nanjing, China) according to the manufacturer’s instructions. The other half was fixed with 4% paraformaldehyde solution and then dehydrated, embedded in paraffin and sectioned at a thickness of 5 μm. Four paraffin sections from each mouse were dewaxed, rehydrated and stained with hematoxylin-eosin (HE) for overall morphological evaluation. The total protein concentration was quantified by the BCA assay. Bcl-2 and Bax proteins were measured by western blot.

[5] = tested on: P-glycoprotein (P-gp); set-up: method as in PMID 24065861; conditions: ATPase assay with rat mdr1 membrane; cited from earlier work
[6] = Hepatic concentrations of triptolide in mice; assay type: in vivo; conditions: mice liver
Experimental: as §1
The TP in plasma and tissue samples was quantitatively analyzed by a published LC-MS/MS method. The method was slightly modified and validated for analysis of plasma and liver tissue samples. Plasma and tissue homogenate were pretreated with 3-fold volume of methanol-acetonitrile (1:1, v/v) containing 20 ng/ml propranolol to precipitate proteins, and then centrifuged at 4°C, 14,000 g for 10 min. The supernatant (10 μl) was injected into LC-MS/MS for analysis. An Aglient 6410B triple quadrupole mass spectrometer equipped with Agilent1290 Infinity UHPLC system (Agilent Technologies, Santa Clara, CA) was used. TP and propranolol (internal standard, IS) were eluted from an Agilent C18 column (dp = 3.5 μm, 2.1 × 50 mm, Agilent, MA) using a mobile phase gradient (A: water with 0.1% formic acid and 2.5 mM ammonium formate, B: acetonitrile with 0.1% formic acid). The gradient was run as: 0–2.5 min hold at 95% B; 2.5–3 min, a linear gradient to 10% B; 3–4 min hold at 10% B. Flow rate was 0.2 ml/min. TP and propranolol were detected in positive ion mode using single reaction monitoring: TP, m/z 378.1/360.1, IS, m/z 260.0/116.0. Under the above optimized condition, no significant endogenous interferences were detected at the peak regions for TP and IS in all the biological specimens. The calibration curves of TP were linear (r^2 > 0.99) over the concentration range of 1–1000 ng/ml. The lower limit of quantification was at 1 ng/ml. The intra and inter-day precisions (RSD) were all below 11% and the assay accuracies (RE) were in the range from 87% to 113%. The recovery was above 80% for both plasma and tissue samples.

[7] = tested on: BALB/C mice; experiment: Hepatic MDA content and SOD activity in mice; assay type: in vivo; conditions: 24 h; for Hepatic MDA level, fold increase: significance vs normal group
Experimental: as §1
At 24 h of TP treatment, blood and liver tissue samples were collected from the mice in plasma kinetic study. Serum ALT and AST levels were determined with a CL8000 automated biochemical analyzer (Shimadzu, Japan) after serum was separated by centrifugation at 900 g for 10 min. […] The total protein concentration was quantified by the BCA assay. Bcl-2 and Bax proteins were measured by western blot.

[8] = Preliminary experiment: effect of NC-siRNA on pharmacokinetics of TP in mice; assay type: in vivo; conditions: mice, plasma; for AUC(0-t) / Cmax / MRT / Vd / clearance: 1 mg/kg
Experimental: Effect of NC-siRNA on pharmacokinetic of TP
Mice were divided into two groups to collect blood samples (n=5 each): (1) 1.0 mg/kg TP + saline group; (2) 1.0 mg/kg TP + 15 nmol NC-siRNA group. The siRNA group was intravenously injected with NC-siRNA 2 days before TP dose. Blood samples were collected at 2, 5, 10, 15, 30, 60 and 120 min after TP dosing. The concentrations of TP in plasma and liver were measured by a validated LC-MS/MS method.

[9] = C57, mouse, iv, TP 1.0 mg/kg + saline
[10] = C57, mouse, iv, TP 1.0 mg/kg + 15 nmol NC-siRNA iv 2 days before

Compound: CC(C)[C@]12O[C@H]1[C@@H]1O[C@]13[C@]1(O[C@H]1C[C@H]1C4=C(CC[C@@]13C)C(=O)OC4)[C@@H]2O [TP, Triptolide]
- TP dose excreted via bile [1]: ~39%
- Death rate within 30 h of TP treatment [2]: about 60%
- Increase fold of TP hepatic exposure ([3]; at 120 min): about 2 fold
- Increase in AST level [3]: about 2 fold
- Serum ALT level, folds of the normal group [4]: 4.2 folds
- Serum AST level, folds of the normal group [4]: 5.4 folds
- P-gp substrate identification [5]: substrate
- Hepatic concentration of TP ([6]; 5 min after TP 1.0 mg/kg iv, NC-siRNA pretreatment (control)): 1953.3 ± 786.7 ng/g protein
- Hepatic concentration of TP ([6]; 5 min after TP 1.0 mg/kg iv, mdr1a-siRNA iv 2 days before): 4278.0 ± 653.1 ng/g protein
- Hepatic concentration of TP ([6]; 5 min after TP 1.0 mg/kg iv, tariquidar 10 mg/kg iv 20 min prior): 2857.3 ± 909.4 ng/g protein
- Hepatic concentration of TP ([6]; 30 min after TP 1.0 mg/kg iv, NC-siRNA pretreatment (control)): 394.9 ± 41.2 ng/g protein
- Hepatic concentration of TP ([6]; 30 min after TP 1.0 mg/kg iv, mdr1a-siRNA iv 2 days before): 950.8 ± 232.1 ng/g protein
- Hepatic concentration of TP ([6]; 30 min after TP 1.0 mg/kg iv, tariquidar 10 mg/kg iv 20 min prior): 683.9 ± 61.3 ng/g protein
- Hepatic concentration of TP ([6]; 60 min after TP 1.0 mg/kg iv, NC-siRNA pretreatment (control)): 170.6 ± 66.3 ng/g protein
- Hepatic concentration of TP ([6]; 60 min after TP 1.0 mg/kg iv, mdr1a-siRNA iv 2 days before): 326.2 ± 22.4 ng/g protein
- Hepatic concentration of TP ([6]; 60 min after TP 1.0 mg/kg iv, tariquidar 10 mg/kg iv 20 min prior): 302.8 ± 22.7 ng/g protein
- Hepatic concentration of TP ([6]; 120 min after TP 1.0 mg/kg iv, NC-siRNA pretreatment (control)): 37.4 ± 12.2 ng/g protein
- Hepatic concentration of TP ([6]; 120 min after TP 1.0 mg/kg iv, mdr1a-siRNA iv 2 days before): 84.8 ± 14.5 ng/g protein
- Hepatic concentration of TP ([6]; 120 min after TP 1.0 mg/kg iv, tariquidar 10 mg/kg iv 20 min prior): 36.1 ± 14.4 ng/g protein
- Hepatic MDA level, fold increase ([7]; TP 1 mg/kg iv + mdr1a-siRNA): 1.6 fold
- Hepatic MDA level, fold increase ([7]; TP 1 mg/kg iv + tariquidar 10 mg/kg): 1.3 fold
- Hepatic SOD activity ([7]; all three TP groups, significant only with tariquidar or mdr1a-siRNA): reduction
- half-life [8, 9]: 12.6 ± 3 min
- AUC(0-t) [8, 10]: 99.1 ± 11.7 ng·h/mL
- Cmax [8, 10]: 330 ± 18.2 ng/mL
- MRT [8, 10]: 15.6 ± 2.4 min
- Vd [8, 10]: 3.1 ± 0.6 L/kg
- clearance [8, 10]: 173 mL/min/kg
- AUC(0-t) [8, 9]: 104 ± 13.4 ng·h/mL
- Cmax [8, 9]: 351 ± 10.9 ng/mL
- MRT [8, 9]: 13.8 ± 1.8 min
- Vd [8, 9]: 3 ± 0.3 L/kg
- clearance [8, 9]: 165 mL/min/kg
- t1/2 ([8]; TP 1.0 mg/kg + 15 nmol NC-siRNA iv 2 days before): 12.6 ± 3.6 min
